Assay results published in a melting point compilation (Tetko et al.; mined from patent text by program, amines drawn as free bases though some values may be those of a salt).

For O=C(O)COC1CCN(Cc2ccc3c(c2)Nc2nccnc2S3)CC1, the melting point was 204 to 207 °C. For CC(=O)Nc1c(-c2cccc(-n3c(N)nc4ccccc43)c2)cnn1C, the melting point was 135 to 137 °C. For CCOc1ccccc1Nc1ncc(C(=O)O)c(=O)[nH]1, the melting point was 226 to 228 °C. For CC(C)(C)n1cc(CN(Cc2cn(CCO)nn2)Cc2cn(C(C)(C)C)nn2)nn1, the melting point was 82 to 83 °C. In the case of COc1ccc(C(Cc2ccncc2)c2ccc(CO)cc2)cc1OC1CCCC1 (centres undefined), the melting point was 179 to 182 °C. CCOC(=O)c1nccn1C1Cc2ccc(Cl)c(Cl)c2C1=O (centres undefined) gave a melting point of 90 °C. With CCCCNC(=O)NCCC the melting point was 70 to 72 °C. C#CCN(c1ccc(C(=O)NC(CCCCC(=O)O)C(=O)O)cc1)C1CCc2cc3nc(C)[nH]c(=O)c3cc21 (mixture of isomers) gave a melting point of 165 °C. In the case of O=C(OCC1OC(c2ccc(Cl)c(Cc3cc4ccccc4s3)c2)C(OC(=O)c2ccccc2)C(OC(=O)c2ccccc2)C1F)c1ccccc1 (centres undefined), the melting point was 204 to 207 °C. Compound CSC(c1ccc(Cl)cc1)c1ccc(Cl)cc1 has a melting point of 56 to 57 °C. For CC1(C)Oc2ccc(C(=O)O)cc2S1, the melting point was 124 to 125 °C. In the case of O=C(O)CCCCCCCn1cnc(-c2ccc(O)cc2)c1-c1ccc(O)cc1, the melting point was 203 to 204 °C. With C=CCc1cc(C=C(C(=O)OCC)C(=O)OCC)cc(OC)c1OC the melting point was 43 to 44 °C. With Cc1cccc2n[nH]c(=O)n12 the melting point was 182 to 183 °C. With COC(=O)[C@]1(F)[C@H]2[C@H](O)CC(=O)[C@H]21 the melting point was 61 to 62 °C. For Clc1nc(-c2cccnc2)[nH]c1Cl, the melting point was 237 to 238 °C. CNC(=S)NNCC1CC2c3cccc4[nH]cc(c34)CC2N(C)C1 (centres undefined) gave a melting point of 220 to 221 °C. In the case of COc1ccccc1NC(=O)c1ccc(CO)cc1, the melting point was 104 to 106 °C. Cc1c(Sc2ccc(Cl)cc2)nn(-c2ccc3c(c2)OCO3)c(=O)c1C#N gave a melting point of 166 to 168 °C. CC(C)(C)NS(=O)(=O)c1cccs1 gave a melting point of 80 to 82 °C. Work on NS(=O)(=O)c1ccc(-c2ccc(F)cc2F)cc1 yielded a melting point of 143 °C. O=C1NCCC1Cc1ccc(Cl)nc1 (centres undefined) gave a melting point of 117 to 118 °C. With CCON=C(CC)C1=C(O)CC(c2ccc(C(=O)OC)cc2)CC1=O (centres undefined) the melting point was 75 to 76 °C. CCOC(=O)C(CC(=O)c1ccc(Oc2ccc(Cl)cc2)cc1)SC(C)=O (centres undefined) gave a melting point of 75.5 to 77 °C. O=Cc1c[nH]nc1-c1ccc([N+](=O)[O-])o1 showed a melting point of 184 to 186 °C. CN(C)C(=O)Nc1cccc(C(=O)c2ccccc2)c1 gave a melting point of 104 to 105 °C. In the case of Cc1ccc(=Nc2nnc(C(F)(F)F)s2)n(-c2cccc(C(F)(F)F)c2)c1, the melting point was 179 °C. FC(F)(F)c1ccc2c(C3=CCN(CCCOc4cccc5[nH]ccc45)CC3)c[nH]c2c1 showed a melting point of 190 to 195 °C. Compound C#CCS(=O)c1ncc(Cl)cn1 (centres undefined) has a melting point of 92 °C. COc1ccc(Nc2c(C#N)cnc3cc(OC)c(OC)cc23)cc1O showed a melting point of 254 to 256 °C. Compound CN1CCC[C@H]1c1cnc(Cl)c(Cl)c1C(O)(c1ccccc1)c1ccccc1 has a melting point of 170 to 172 °C. CCC(C)n1cc(Cl)nc(N2CCc3cc(OC)cc(C)c32)c1=O (centres undefined) gave a melting point of 176 to 178 °C. COc1ccccc1CNc1ccc2cc(Nc3cccc(C(F)(F)F)n3)ccc2n1 gave a melting point of 151 °C. With CCCN(CCC)C1CCc2c(ccc3c2C(=O)C(=O)N3)C1 (centres undefined) the melting point was 83 to 86 °C. CCOC(=O)N[C@@H]1c2cc(C#N)ccc2OC(C)(C)[C@H]1O (relative stereo) showed a melting point of 147 to 148 °C. CN1CCC[C@H]1c1cnc(Cl)cc1P(C(C)(C)C)C(C)(C)C showed a melting point of 125 to 127 °C. Work on CN1Cc2c(C(N)=O)ncn2-c2cccc(Br)c2C1=O yielded a melting point of 278 to 279 °C. For Nc1ccc(-c2cc(=O)c3cccnc3o2)cc1, the melting point was 254 to 255 °C. For NC(=O)c1nc2n(n1)-c1ccc(Cl)cc1C(c1ccccc1)=NC2, the melting point was 252 to 254 °C. For CCc1ccc2nc(C)c(S(=O)(=O)NC(=O)Nc3nc(OC)cc(OC)n3)n2n1, the melting point was 172 to 174 °C. Work on Nc1ccc(CCc2nc3ccccc3s2)cc1 yielded a melting point of 79 to 81 °C. With O=C(C#Cc1ccc(CCN2CCCC2)cc1)Nc1ccc(-c2ccccc2)cc1 the melting point was 180 to 189 °C. For CN1CCCC1=NC(=O)Nc1cc(Cl)ccc1Cl, the melting point was 148 to 150 °C. In the case of CCn1cc(O)c(=O)cc1CO, the melting point was 143 to 145 °C. In the case of Cc1cc(-c2ccc(C#N)cc2)c(C)n1Cc1cnc(Cl)c(COC(=O)CCC(=O)O)c1, the melting point was 201 to 204 °C. For CC(Br)c1ccc(C(=O)c2cccs2)cc1 (centres undefined), the melting point was 71.1 °C. In the case of CCN1CCC(n2nnnc2C2(c3cc(C(C)C)ccc3OC)C=CC(O)=CC2O)CC1 (centres undefined), the melting point was 144 to 147 °C. In the case of O=S(=O)(Nc1ccccc1O)c1cc(S(=O)(=O)Nc2ccccc2O)c2cc(O)ccc2c1, the melting point was 118 to 120 °C. In the case of O=C1Nc2cccc(-c3cccc([N+](=O)[O-])c3)c2/C1=C/c1ccc[nH]1, the melting point was 197 to 199 °C. CCN1C=C(C(=O)OC)C(=O)CC1c1ccc(N(C)C)cc1 (centres undefined) gave a melting point of 85 to 87 °C. Work on C#CCC(=NO)C1=CCCN(C)C1 yielded a melting point of 55 to 57 °C. In the case of O=C(NCCNCC(O)COc1ccc(OCCOCC2CCC2)cc1)N1CCOCC1 (centres undefined), the melting point was 91 to 93 °C. Work on COC(=O)OC1CCC2C3CCC4=CC(=O)CCC4(C)C3CCC12C (centres undefined) yielded a melting point of 140 to 141 °C. In the case of N#CN1CCC(c2nsc3ccccc23)CC1, the melting point was 118 to 120 °C. CCOC(=O)C12CC1CN(S(=O)(=O)c1ccc(C)cc1)C2c1ccccc1 (centres undefined) showed a melting point of 123 to 124 °C. For CC1(CC(=O)O)CCCCC1=O (centres undefined), the melting point was 87 to 90 °C. For CCOc1cc(C(O)C(C)C)cc2c1OC(C)(C)C2 (centres undefined), the melting point was 100 to 101 °C. In the case of COc1ccc(Nc2nc(=O)c3cccnc3s2)cc1, the melting point was 250 to 251 °C. In the case of CCC(CC)c1ccc(Cl)c2nc3n(c12)CCN3c1ccc(C(N)=O)cc1Cl, the melting point was 225 to 229 °C. Compound CCCCn1c(=O)n(CCC)c(=O)c2[nH]c(C)nc21 has a melting point of 174 to 175 °C. For Cn1nnnc1SCC1=C(C(=O)O)N2C(=O)C(NC(=O)Cn3ccnc3S(C)(=O)=O)C2SC1 (centres undefined), the melting point was 230 °C. Cc1cc([Si](C)(C)C)c(C)cc1[Si](C)(C)C gave a melting point of 56 to 57.5 °C. Cc1cc(F)c(NS(=O)(=O)c2ccccc2)cc1NS(=O)(=O)c1ccccc1 showed a melting point of 146 °C. For N#CC(CCOc1ccccc1)(Cn1cncn1)c1ccccc1 (centres undefined), the melting point was 64 to 66 °C. With CC(C)(C)c1csc(NC(=O)c2ccn3c(=O)c(/C=C/C(=O)O)c(N4CCCC(CC(=O)NCCO)C4)nc3c2)n1 (centres undefined) the melting point was 167 to 175 °C. Work on Nc1c(Br)cc(C(=O)CBr)cc1Br yielded a melting point of 146 to 147 °C. For COc1ccc(C(N2CCN(c3ncccn3)CC2)N2CCCC2=O)cc1 (centres undefined), the melting point was 166 to 170 °C. In the case of O=C(Nc1ccc(OCCN2CCOCC2)c2ccccc12)c1cc(F)cc(OC2CCCCC2)c1, the melting point was 116 to 118 °C. Work on CS(=O)(=O)c1c(C(=O)c2cnoc2C2CC2)ccc(F)c1F yielded a melting point of 115 to 118 °C. Compound Cc1ccc2c(c1)c(=O)c(S(C)=O)cn2C (centres undefined) has a melting point of 202 to 205 °C. O=C(NN1CCCCC1)NS(=O)(=O)C=Cc1ccccc1 gave a melting point of 175 to 177 °C. In the case of COc1ccc(Oc2ccccc2Cl)cc1C=O, the melting point was 65 to 66 °C. In the case of O=C(O)C1CC(=S)N(c2cc(C(F)(F)F)cc(C(F)(F)F)c2)C1 (centres undefined), the melting point was 141 to 142 °C. Compound Nc1cccc(C(=O)N2CC3CC(CN(Cc4ccccc4)C3)C2)c1 has a melting point of 178 °C. For CC1CCc2c(N3CCCCC3)c(F)cc3c(=O)c(C(=O)O)cn1c23 (centres undefined), the melting point was 258 to 261 °C. Compound O=C1CCc2nc(-c3ccccc3)ccc21 has a melting point of 177 to 178 °C. CC(=Cc1ccsc1Cl)[N+](=O)[O-] gave a melting point of 73 to 76 °C. In the case of CCC(C)c1ccccc1Sc1c(O)cc(-c2ccccc2)oc1=O (centres undefined), the melting point was 170 to 171 °C. In the case of c1ccc(N2c3ccccc3Sc3ccccc32)nc1, the melting point was 107 to 109 °C. CCCC(=O)c1c(C)cc(C)cc1O gave a melting point of 48 to 52 °C. For CCS(=O)(=O)c1ncc(S(N)(=O)=O)s1, the melting point was 129 to 130 °C. Work on Cc1ccc(C(O)=S)cn1 yielded a melting point of 186 to 188 °C. Compound CC(=O)Nc1cc(OC(F)F)c(OC(F)F)cc1[N+](=O)[O-] has a melting point of 65 to 67 °C. In the case of O=C1N(Cc2ccccn2)c2ccccc2C12COc1cc3nccnc3cc12 (centres undefined), the melting point was 232 to 233 °C. COC(=O)C1=C(C)NC(C)=C(C(=O)OCC2CCC(=O)O2)C1c1ccccc1[N+](=O)[O-] (centres undefined) showed a melting point of 132 to 134 °C. CCCCNC(=O)C(C)(O[Si](C)(C)C(C)(C)C)c1ccc([N+](=O)[O-])cc1 (centres undefined) showed a melting point of 49 to 50 °C. With c1cn(-c2nc(N3CCOCC3)nc(N3CCOCC3)n2)cn1 the melting point was 248 to 250 °C. In the case of O=C(c1ccccc1)c1ccc(SCCO)cc1, the melting point was 49 to 51 °C. O=C(Nc1ccc(F)nc1)N1CCN(c2ccnc(-c3cccc(F)c3F)n2)CC1 showed a melting point of 192 to 193 °C. C/C=C/CC(=O)N[C@H]1CC[C@H](CCN2CCN(c3nccc4c3OCC4)CC2)CC1 gave a melting point of 170 °C. COCCOc1ccc(COC(=O)NS(=O)(=O)NCC(C)C)c(Oc2ncc(C(F)(F)F)cc2Cl)c1 showed a melting point of 160 to 161 °C. For CC(C)(CCl)c1cc(Cl)nnc1Cl, the melting point was 66.5 to 68.5 °C. CC(=O)Nc1ccc(S(=O)(=O)Nc2ccn(C3CCCC3)c(=O)n2)cc1 gave a melting point of 219 to 228 °C. N#CNC1=NC(c2ccc(OC(F)(F)F)cc2)(c2cccc(-c3cncnc3)c2)C2=NCCCN12 (centres undefined) gave a melting point of 227 to 231 °C. Work on O=C1C2CCCC2=Nc2ccccc2N1Cc1ccc2ccccc2c1 (centres undefined) yielded a melting point of 164 to 167 °C. Work on CCON=Cc1c(S(C)(=O)=O)ccc(C(=O)C2C(=O)CC(C)(C)CC2=O)c1Cl yielded a melting point of 156 to 157 °C. With CN=C(N)Nc1nc(CSCCNC2=NS(=O)N=C2N)cs1 (centres undefined) the melting point was 86 to 91 °C. For O=C(NCc1ccc2ccn(C3CCN(CCc4ccc(F)cc4)CC3)c2c1)C(F)F, the melting point was 79 to 80 °C. O=C(OCc1ccccc1)C1CSC2C(N=Cc3ccc([N+](=O)[O-])cc3)C(=O)N12 (centres undefined) gave a melting point of 95 to 96 °C. For Cn1c(CC(=O)O)ccc1C(=O)c1ccccc1, the melting point was 144 to 145 °C. Work on Cc1ccc(S(=O)(=O)N2CCCCC2)cc1 yielded a melting point of 148 to 150 °C. Cc1nc2c(O)c(C(=O)[C@H](O)[C@@H](O)c3ccccc3)ccc2n1C1CC1 gave a melting point of 120 °C. For c1ccc(OCCN2CCC(CNc3nc4ccccc4s3)CC2)cc1, the melting point was 116 °C. O=C(O)c1cc(-c2ccc([N+](=O)[O-])cc2)c(-c2ccc(F)cc2)s1 gave a melting point of 227 to 229 °C.
